Source: paper PMC6101487 (2018)

Assays:
Experiment in all cases: fluorescence scan of RNA array
Conditions in all cases: 6 mM MgCl2, 20 mM NaCl; 40 mM Tris pH 7.8, 20 °C, 16 h; 20 μM malachite green
[1] = system: MGsa (malachite green aptamer–streptavidin aptamer conjugate) (RNA, aptamer) GGAUCCCGACUGGCGAGAGCCAGGUAACGAAUGGAUCCACACACACACACACACACACGCAUGCAUACCGACCAGAAUCAUGCAAGUGCGUAAGAUAGUCGCGGGCCGGGAUGCAUGC
[2] = system: MicAsa (RNA, other) GGGGAAAGACGCGCAUUUGUUAUCAUCAUCCCUGAAUUCAGAGAUGAAAUUUUGGCCACUCACGAGUGGCCUUUUACACACACACACACACACACGCAUGCAUACCGACCAGAAUCAUGCAAGUGCGUAAGAUAGUCGCGGGCCGGGAUGCAUGC
[3] = system: DsrAsa (RNA, other) GGGAACACAUCAGAUUUCCUGGUGUAACGAAUUUUUUAAGUGCUUCUUGCUUAAGCAAGUUUCAUCCCGACCCCCUCAGGGUCGGGAUUUUUUUUUUUUUUUUUUUUUUAGAGACCGACCAGAAUCAUGCAAGUGCGUAAGAUAGUCGCGGGCCGGGCUCUA
[4] = system: RprAsa (RNA, other) GGGACGGUUAUAAAUCAACAUAUUGAUUUAUAAGCAUGGAAAUCCCCUGAGUGAAACAACGAAUUGCUGUGUGUAGUCUUUGCCCAUCUCCCACGAUGGGCUUUUUUUUUUUUUUUUUUUUUUUUUUGUGUGACCGACCAGAAUCAUGCAAGUGCGUAAGAUAGUCGCGGGCCGGGCACAC
[5] = system: ompAsa (RNA, mRNA element) GGGCCAGGGGUGCUCGGCAUAAGCCGAAGAUAUCGGUAGAGUUAAUAUUGAGCAGAUCCCCCGGUGAAGGAUUUAACCGUGUUAUCUCGUUGGAGAUAUUCAUGGCGUAUUUUGGAUGAUAACGAGGCGCAAAAAAUGAAAAAGACAGCUAUCGCGAUUGCAGUGGCAAAUAAUAAUAAUAAUAAUAAUAUGCAUGCACCGACCAGAAUCAUGCAAGUGCGUAAGAUAGUCGCGGGCCGGGGCAUGCAU
[6] = system: rpoSsa (RNA, mRNA element) GGGUUCUGAGUCUUCGGGUGAACAGAGUGCUAACAAAAUGUUGCCGAACAACAAGCCAACUGCGACCACGGUCACAGCGCCUGUAACGGUACCAACAGCAAGCACAACCGAGCCGACUGUCAGCAGUACAUCAACCAGUACGCCUAUCUCCACCUGGACCUGGCCGACUGAGGGCAAAGUGAUCGAAACCUUUGGCGCUUCUGAGGGGGGCAACAAGGGGAUUGAUAUCGCAGGCAGCAAAGGACAGGCAAUUAUCGCGACCGCAGAUGGCCGCGUUGUUUAUGCUGGUAACGCGCUGCGCGGCUACGGUAAUCUGAUUAUCAUCAAACAUAAUGAUGAUUACCUGAGUGCCUACGCCCAUAACGACACAAUGCUGGUCCGGGAACAACAAGAAGUUAAGGCGGGGCAAAAAAUAGCGACCAUGGGUAGCACCGGAACCAGUUCAACACGCUUGCAUUUUGAAAUUCGUUACAAGGGGAAAUCCGUAAACCCGCUGCGUUAUUUGCCGCAGCGAUAAAUCGGCGGAACCAGGCUUUUGCUUGAAUGUUCCGUCAAGGGAUCACGGGUAGGAGCCACCUUAUGAGUCAGAUUUUUUUUUUUUUUUUUUAUGCAUGCACCGACCAGAAUCAUGCAAGUGCGUAAGAUAGUCGCGGGCCGGGGCAUGCAU

binding [1]: yes
binding [2]: no
binding [3]: no
binding [4]: no
binding [5]: no
binding [6]: no
Structure (SMILES): CN(C)c1ccc(C(=C2C=CC(=[N+](C)C)C=C2)c2ccccc2)cc1
